Values quoted from earlier work in US8686153B2, “Lenalidomide salts” (Synthon B.V., priority 2009, dated 2014).

In the case of `Nc1cccc2c1CN(C1CCC(=O)NC1=O)C2=O` (racemic) [Lenalidomide, 3-(4-amino-1-oxo-3H-isoindol-2-yl)piperidine-2,6-dione], the “solubility at pH 4.6, 6.8 and 7.4” value is listed as 0.4-0.5 mg/ml.
